Results published in patent publication US7592305B2, “Use of ghrelin for treating malnutrition in gastrectomized individuals” (Gastrotech Pharma A/S, priority 2002, dated 2009).
Ends that are not written are not given here. * marks the point of attachment. Octanoyl = CCCCCCCC(=O)*

Tested on: gastrectomised rats
Experiment: Treatment of totally gastrectomised (vagotomised) rats with ghrelin analogue MK-0677 by gavage
Assay type: in vivo, rat
Description: Total gastrectomy was performed and followed by end-to-end anastomosis between the esophagus and the duodenum as described in Lehto-Axtelius D., et al. Osteopenia after gastrectomy, fundectomy or antrectomy: an experimental study in the rat., Regul. Pept. 78 (1998), 41-50. The gastrectomy was accompanied by total vagotomy at the level of cardia. Sham operation was performed by opening the abdomen and moving the stomach.
In sham gastrectomised rats the ghrelin levels were 2.06±0.22 ng/ml, while they were less than the least detectable level of the assay, i e, 0.25 ng/ml after gastrectomy. From four weeks after gastrectomy the animals were administered either water or the ghrelin analogue MK-0677 by gavage once daily (4 mg/kg/day).
Food intake and body weight was measured daily and throughout the experiment. […] After two weeks of treatment, the animals were decapitated and blood and tissues collected and rapidly frozen. Gonadal, mesenteric and retroperitoneal far pads were dissected and weighed, and the sum of the weight was then calculated. Ghrelin was measured in serum using a kit purchased from Phoenix Pharmaceuticals as described (Dornonville de la Cour, supra).

[1] = 4 mg/kg/day by gavage once daily, after two weeks of treatment, vs water

| Compound | body weight (4 mg/kg/day by gavage once daily from four weeks after gastrectomy, two weeks of treatment, vs water) | hypothalamic levels of neuropeptide Y (NPY) mRNA [1] | sum of dissected fat pad weights (gonadal, mesenteric and retroperitoneal) [1] | desire for food (food intake measured daily) (treated once daily by gavage) |
| --- | --- | --- | --- | --- |
| CC(C)(N)C(=O)N[C@H](COCc1ccccc1)C(=O)N1CCC2(CC1)CN(S(C)(=O)=O)c1ccccc12 [MK677] | increased | increased | enhanced | – |
| ghrelin: acylated peptide of 28 amino acids with an octanoyl ester attached to a serine residue (GSS(Octanoyl)FLSPEHQRVQQRKESKKPPAKLQPR; listed as Homo sapiens) | – | – | – | increased |
